“Also recorded” adds a separate entry of the source.
Legend:
MMPs = assay: Real time quantitative PCR of MMP gene expression (all MMPs tested) in HGF-1 cells; format: cell-based, human
Description: (§1) Gene expression of MMPs was evaluated after treatment under different conditions. The tissue culture was washed with PBS. […] All samples were treated with Qiagen DNase (Cat #79254).
(§2) Real time quantitative PCR was performed on an Applied Biosciences StepOne plus instrument and analyzed with StepOne software v2.3. The relative amounts of transcripts from each gene were normalized to reference gene GAPDH and calculated as follows: ΔΔCT=the average ΔCT of […]−the average ΔCT of […], and their fold difference=2^−ΔΔCT as previously described.

Human MMP-13; MMP13 = assay: Real time quantitative PCR of MMP-13 gene expression in HGF-1 cells; format: cell-based
Description: as §1, §2

[1] = test system: toll-like receptors 4 (TLR4); settings: peritoneal and colonic macrophages; cited from earlier work
MMP-14 = assay: Western blot of MMP-14 protein expression in LPS-induced HGF-1 cells; format: cell-based, human
Description: (§3) Human Gingival Fibroblasts (HGF-1) were purchased from ATCC (Manassas, VA) and were grown in DMEM with Glutamax, 10% FBS and Penicillin/Streptomycin (All from Gibco) and kept at 37° C. in a humidified air chamber with 5% CO2. Cells were seeded at 3×10^5 cells/flask for the experiments and then grown to confluency. Cells between 3 and 10 passages were used for all experiments.
(§4) 1,2,3,4,6-Penta-O-galloyl-β-D-glucose (purchased from Sigma-Aldrich) was dissolved in dimethylsulfoxide (DMSO) to obtain a 100 mM stock solution.
(§5) The supernatant was collected and assayed for protein concentration.
(§6) The gels were prepared by standard methods and electrophoresed for 1 hour at 150 V.
(§7) Incubation was done according to specific instructions from the manufacturer for each antibody. […] After incubation and washing with PBS-T, the membranes were incubated in the dark in blocking solution with 0.2% Tween, IRDye 800CW Goat anti-Rabbit IgG, and IRDye® 680RD Donkey anti-Mouse IgG (1:10000, LI-COR Biosciences, Lincoln, NE) for 1 hour at room temperature. The proteins were detected and visualized by fluorescence using the Licor Odyssey Classic Infrared Imaging system (LI-COR Biosciences, Lincoln, NE). Densitometry analysis of specific bands was performed with the Image Studio software provided by LI-COR Biosciences. […]

MMP-2 = assay: Western blot of MMP-2 protein expression in LPS-induced HGF-1 cells; format: cell-based, human; settings: for MMP-2 production: HGF-1, LPS 5 μg/mL + curcumin 2.5, 5 or 10 μM, n=3, FIG. 15
Description: as §3, §4, §5, §6
(§8) Incubation was done according to specific instructions from the manufacturer for each antibody. […] After incubation and washing with PBS-T, the membranes were incubated in the dark in blocking solution with 0.2% Tween, IRDye 800CW Goat anti-Rabbit IgG, and IRDye® 680RD Donkey anti-Mouse IgG (1:10000, LI-COR Biosciences, Lincoln, NE) for 1 hour at room temperature. The proteins were detected and visualized by fluorescence using the Licor Odyssey Classic Infrared Imaging system (LI-COR Biosciences, Lincoln, NE). Densitometry analysis of specific bands was performed with the Image Studio software provided by LI-COR Biosciences. Statistical analysis, including 1-way ANOVA with Dunnett's Multiple Comparison Test, was done using GraphPad Prism (GraphPad Software, La Jolla, CA).
Human gingival fibroblasts (HGF-1) were treated with lipopolysaccharide (LPS) from P. gingivalis to reproduce the type of inflammatory response seen in chronic periodontitis. Upon treatment with […], MMP-2 was released into the pericellular space to be activated by MMP-14. Subsequently, MMP-2 and MMP-14 activate MMP-13. […] LPS activation of MMP-2, MMP-13 and MMP-14, however, was attenuated by the administration of PGG.
(§9) HGF-1 cells were induced with LPS (5 μg/mL) to mimic the inflammatory process and Curcumin was added at different concentrations (2.5, 5 and 10 μM).

MyD88 adaptor protein = biological target: T1, MyD88 adaptor protein (Mus musculus, UniProt P22366); settings: peritoneal and colonic macrophages; cited from earlier work
T1 construct: host or cells: peritoneal and colonic macrophages

TNF-α, IL-1β and IL-6 = settings: peritoneal and colonic macrophages; cited from earlier work
Human MMP-2; MMP2 = assay: Real time quantitative PCR of MMP-2 gene expression in HGF-1 cells; format: cell-based
Description: as §1, §2

MMP-3 = assay: Western blot of MMP-3 protein expression in LPS-induced HGF-1 cells; format: cell-based, human
Description: as §3, §4, §5, §6, §8
HGF-1 cells were treated with lipopolysaccharide (LPS, 5 μg/mL) from P. gingivalis in order to reproduce the type of inflammatory response seen in chronic periodontitis.
as §9

MMP-9 [2] = assay: Western blot of MMP-9 protein expression in LPS-induced HGF-1 cells; format: cell-based, human; settings: FIG. 5
Description: as §3, §4, §5, §6, §7

MMP-13 = assay: Western blot of MMP-13 protein expression in LPS-induced HGF-1 cells; format: cell-based, human
Description: as §3, §4, §5, §6, §7

Human MMP-14; MMP14 = assay: Real time quantitative PCR of MMP-14 gene expression in HGF-1 cells; format: cell-based
Description: as §1, §2

MMP-9 [3] = assay: Real time quantitative PCR of MMP-9 gene expression in HGF-1 cells; format: cell-based, human
Description: as §1, §2

TNF-α and IL-1β = settings: peripheral blood mononuclear cells, PGG alone; cited from earlier work
TNF-α = settings: PBMCs, doses as low as 5 μM; cited from earlier work
[4] = HGF-1, LPS 5 μg/mL + PGG 100 μM, p<0.05, n=3
[5] = HGF-1, LPS + PGG 50-100 μM, FIG. 6
[6] = HGF-1, LPS + PGG 25 μM (lowest dose tested), 48 hours

T1 sequence (P22366 whole entry): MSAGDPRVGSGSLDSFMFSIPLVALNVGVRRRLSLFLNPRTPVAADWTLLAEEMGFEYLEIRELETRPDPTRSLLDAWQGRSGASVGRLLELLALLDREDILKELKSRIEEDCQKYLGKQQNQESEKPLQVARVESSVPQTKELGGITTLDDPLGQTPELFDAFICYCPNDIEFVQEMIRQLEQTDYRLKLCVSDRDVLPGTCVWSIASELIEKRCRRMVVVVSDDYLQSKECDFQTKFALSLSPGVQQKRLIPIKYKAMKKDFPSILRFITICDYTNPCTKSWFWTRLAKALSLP

Compound: O=C(OC[C@H]1O[C@@H](OC(=O)c2cc(O)c(O)c(O)c2)[C@H](OC(=O)c2cc(O)c(O)c(O)c2)[C@@H](OC(=O)c2cc(O)c(O)c(O)c2)[C@@H]1OC(=O)c1cc(O)c(O)c(O)c1)c1cc(O)c(O)c(O)c1 [PGG, 1,2,3,4,6-penta-O-galloyl-β-D-glucose]
- MMP gene expression (MMPs; HGF-1, LPS 5 μg/mL + PGG 25 μM, FIG. 6): did not vary gene expression in a significant manner
- MPP gene expression (MMPs; healthy HGF-1 (no LPS), PGG 100 μM): did not significantly change
- MMP-13 gene expression compared with induction with LPS alone (Human MMP-13; MMP13; [4]): significantly reduced the expression of MMP-9, MMP-13 and MMP-14
- MMP-13 gene expression compared with LPS induction with or without PGG 25 μM (Human MMP-13; MMP13; [5]): reduced MMP-2, MMP-9, MMP-13, and MMP-14 expression
- interference with the binding of LPS to TLR4 [1]: did not interfere
- MMP-14 expression in the PGG treated groups (MMP-14; HGF-1, LPS 5 μg/mL + PGG, 48 hour, FIG. 3): not significantly different than the healthy controls; also recorded: not significantly different from healthy controls
- MMP-14 protein level after LPS treatment (MMP-14; [6]): reduction of these three MMPs to basal levels of production
- MMP-2 protein level after LPS treatment (MMP-2; [6]): reduction of these three MMPs to basal levels of production
- MMP-2 levels compared to healthy control (MMP-2; HGF-1, PGG 100 μM, FIG. 1): reduced significantly; also recorded: lower than in healthy controls
- MMP-2 expression compared to healthy controls (MMP-2; HGF-1, simultaneously treated with LPS and increasing PGG concentrations, FIG. 1): not significantly different than in healthy controls
- interaction with MyD88 adaptor protein (MyD88 adaptor protein): interacted directly
- production of TNF-α, IL-1β and IL-6 (TNF-α, IL-1β and IL-6): decreasing the production
- MMP-2 gene expression (Human MMP-2; MMP2; HGF-1, LPS 5 μg/mL + PGG 100 μM, p<0.01, n=3, FIG. 6): decreased the expression of MMP-2 compared to treatment with PGG 25-50 μM, yet expression was still higher compared with healthy HGF-1
- MMP-2 gene expression compared with LPS induction with or without PGG 25 μM (Human MMP-2; MMP2; [5]): reduced MMP-2, MMP-9, MMP-13, and MMP-14 expression
- MMP-3 protein level (MMP-3; HGF-1, LPS 5 μg/mL + PGG 25 μM, FIG. 4): comparable to healthy control values
- MMP-3 protein level (MMP-3; HGF-1, LPS 5 μg/mL + PGG 50 and 100 μM, p<0.001, FIG. 4): further reduced MMP-3 to levels below basal production
- MMP-9 protein level compared to LPS inflammatory control (MMP-9 [2]; HGF-1, LPS 5 μg/mL + PGG at a dose lower than 50 μM): decreased the MMP-9 level
- MMP-9 protein level, return to normal levels (MMP-9 [2]; HGF-1, LPS 5 μg/mL + PGG): did not return to normal levels until it was treated with at least 50 μM PGG
- MMP-13 protein level after LPS treatment (MMP-13; [6]): reduction of these three MMPs to basal levels of production
- MMP-13 expression in the PGG treated groups (MMP-13; HGF-1, LPS + PGG, FIG. 2): not significantly different than the healthy controls; also recorded: prevented upregulation of MMP-13 in a dose-dependent manner
- MMP-14 gene expression compared with induction with LPS alone (Human MMP-14; MMP14; [4]): significantly reduced the expression of MMP-9, MMP-13 and MMP-14
- MMP-14 gene expression compared with LPS induction with or without PGG 25 μM (Human MMP-14; MMP14; [5]): reduced MMP-2, MMP-9, MMP-13, and MMP-14 expression
- MMP-9 gene expression compared with induction with LPS alone (MMP-9 [3]; [4]): significantly reduced the expression of MMP-9, MMP-13 and MMP-14
- MMP-9 gene expression compared with LPS induction with or without PGG 25 μM (MMP-9 [3]; [5]): reduced MMP-2, MMP-9, MMP-13, and MMP-14 expression
- cytokine production of PBMCs on treatment with PGG (TNF-α and IL-1β): resulted in the production of TNF-α and IL-1β
- suppression of LPS-induced TNF-α production (TNF-α): ≤ 90%

Compound: COc1cc(/C=C/C(=O)CC(=O)/C=C/c2ccc(O)c(OC)c2)ccc1O [curcumin, reference compound]
- MMP-2 production (MMP-2): not significantly different that the untreated HGF-1
- MMP-2 production (MMP-2; listed as Curcumin): decreased MMP-2 production
- MMP-2 expression (MMP-2; HGF-1 treated with Curcumin 10 μM alone (no LPS), p>0.05, n=3): not significantly different from untreated HGF-1
- MMP-3 production (MMP-3; HGF-1, LPS 5 μg/mL + curcumin 2.5, 5 and 10 μM, FIG. 16): decreased MMP-3 production

Source: patent publication US20250032403A1, “COMPOSITIONS FOR TREATING PERIODONTAL DISEASES” (GR Biosystems, Inc., priority 2017, published 2025)
